Experimental data taken from PubChem BioAssay AID2060501 (Molecular Pharmacology Branch, DTP, NCI, 2025).

System: 282377-053-R-J1-PDC complex spheroids, viability
Assay: Anticancer human tumor 282377-053-R-J1-PDC patient-derived colon adenocarcinoma cell line growth inhibition [GQUAD]
Settings: for IC50: curve of first compound; for viability, T/C: stronger effect = lower value
Source text: DNA G-quadruplex Stabilizer Agents in Combinations in Complex Spheroids
A high-throughput screen of multi-cell type tumor spheroids was designed to identify active combinations of DNA G-quadruplex stabilizer agents and targeted small molecules. Complex spheroids include a stromal component modeled by human endothelial cells (HUVEC) and fibroblasts modeled by human mesenchymal stem cells (MSCs). The concentration ranges selected for each drug and investigational agent were based upon clinically achievable concentrations if the clinical Cmax of the agent was known.
Compounds. The drugs and investigational agents: pidnarulex (CX-5461; NSC782164), APTO-253 (NSC789042), BRACO-19 (NSC847499), peposertib (NSC802822), ceralasertib (NSC780249), elimusertib (NSC800525), camonsertib (NSC841442), AZD-1390 (NSC803789), olaparib (NSC753686), talazoparib (NSC767125), ART-558 (NSC835418), sotorasib (NSC818433), MRTX-1133 (NSC836407), SN-38 (NSC673596), topotecan (NSC609699), etoposide (NSC141540), doxorubicin (NSC123127), gemcitabine (NSC613327), 5-fluorouracil (NSC19893), paclitaxel (NSC125973), vemurafenib (NSC761431), panobinostat (NSC761190), R-306465 (JNJ-16241199; NSC773264), adavosertib (NSC754352), TP-3654 (NSC805149), carboplatin (NSC241240), KSQ-4279 (NSC840948), and staurosporine (NSC755774) were obtained from the National Cancer Institute (NCI) Developmental Therapeutics Program Chemical Repository (34). The FDA-approved anticancer drug set is available from the NCI Developmental Therapeutics Program. […] The stock solutions were prepared in dimethyl sulfoxide (DMSO, Sigma-Aldrich, St. Louis, MO, cat. D2650) at 800-fold the tested concentration and stored at -70 degrees C prior to their use. All drugs and investigational agents were tested over a range starting from a high concentration at or near the clinical Cmax and decreasing in half-log increments. If the clinical Cmax for an agent had not been determined, the highest concentration tested was 10 microM.
2.3 Cell Culture. All cells were maintained in an incubator at 37 degrees C and 5% CO2 with 95% humidity. The PDC lines were cultured according to standard operating procedures established by the NCI PDMR. All PDCs were thawed and cultured in Matrigel-coated flasks prepared with a working solution of 1X Ham's F-12 nutrient mix, without supplementation (Invitrogen, cat. 11765054), 100 U/mL penicillin-streptomycin (Invitrogen, cat. 15140122), and 2.5% Matrigel (Corning Inc., cat. 354248) for the first three passages. The 857933-349-R-J2-PDC line was cultured in 6C/Colon 1B media, which includes advanced DMEM/F-12 (Thermo Fisher Scientific, cat. 12634028), 10 mM HEPES (Thermo Fisher Scientific, cat. 15630080), 1X GlutaMAX supplement (Thermo Fisher Scientific, cat. 35050061), 0.1 mg/mL primocin (InvivoGen, cat. ant-pm-2), 10% defined fetal bovine serum, heat inactivated (HyClone Laboratories Inc., cat. SH30070.03HI), 50% L-WRN conditioned media (ATCC, cat. CRL-3276), 1.25 mM N-Acetyl-L-cysteine (Sigma-Aldrich, cat. A9165), 10 mM nicotinamide (Sigma-Aldrich, cat. N0636), 1X B-27 supplement (Thermo Fisher Scientific, cat. 17504044), 1X N-2 supplement (Thermo Fisher Scientific, cat. 17502048), 10 microM Y-27632 dihydrochloride (Tocris Bioscience, cat. 1254), and 50 ng/mL human EGF recombinant protein (Thermo Fisher Scientific, cat. PHG0311). The 485176-168-R4-J1-PDC line was cultured in Panc media, which includes all 6C/Colon 1B media components plus 100 ng/mL human FGF-10 (Thermo Fisher Scientific, cat. 100-26), 500 nM SB-431542 (Selleckchem, cat. S1067), and gastrin (Tocris, cat. 3006).
[…]

[1] = second compound 0.0316 µM, first compound 0.0316 µM
[2] = second compound 0.0316 µM, first compound 0.1 µM
[3] = second compound 0.0316 µM, first compound 0.316 µM
[4] = second compound 0.0316 µM, first compound 1 µM
[5] = second compound 0.0316 µM, first compound 3.16 µM
[6] = second compound 0.0316 µM, first compound 10 µM
[7] = second compound 0.1 µM, first compound 0.0316 µM
[8] = second compound 0.1 µM, first compound 0.1 µM
[9] = second compound 0.1 µM, first compound 0.316 µM
[10] = second compound 0.1 µM, first compound 1 µM
[11] = second compound 0.1 µM, first compound 3.16 µM
[12] = second compound 0.1 µM, first compound 10 µM
[13] = second compound 0.316 µM, first compound 0.0316 µM
[14] = second compound 0.316 µM, first compound 0.1 µM
[15] = second compound 0.316 µM, first compound 0.316 µM
[16] = second compound 0.316 µM, first compound 1 µM
[17] = second compound 0.316 µM, first compound 3.16 µM
[18] = second compound 0.316 µM, first compound 10 µM
[19] = second compound 1 µM, first compound 0.0316 µM
[20] = second compound 1 µM, first compound 0.1 µM
[21] = second compound 1 µM, first compound 0.316 µM
[22] = second compound 1 µM, first compound 1 µM
[23] = second compound 1 µM, first compound 3.16 µM
[24] = second compound 1 µM, first compound 10 µM
[25] = second compound 3.16 µM, first compound 0.0316 µM
[26] = second compound 3.16 µM, first compound 0.1 µM
[27] = second compound 3.16 µM, first compound 0.316 µM
[28] = second compound 3.16 µM, first compound 1 µM
[29] = second compound 3.16 µM, first compound 3.16 µM
[30] = second compound 3.16 µM, first compound 10 µM
[31] = second compound 10 µM, first compound 0.0316 µM
[32] = second compound 10 µM, first compound 0.1 µM
[33] = second compound 10 µM, first compound 0.316 µM
[34] = second compound 10 µM, first compound 1 µM
[35] = second compound 10 µM, first compound 3.16 µM
[36] = second compound 10 µM, first compound 10 µM
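Further: spheroids exposed to compounds for 7 days before readout.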
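Wherever viability, T/C is given: percent of vehicle DMSO control viability with 100% = untreated-like growth.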

For `C=CCn1c(=O)c2cnc(Nc3ccc(N4CCN(C)CC4)cc3)nc2n1-c1cccc(C(C)(C)O)n1` + Cc1[nH]c2ccc(F)cc2c1-c1nc2c3cccnc3c3ncccc3c2[nH]1, which IC50 (second compound 0.0316 µM) is on record?
Its IC50 is 4250 nM.

And the IC50 (second compound 0.1 µM)?
The IC50 was 3540 nM.

And the IC50 (second compound 0.316 µM)?
The IC50 was 3230 nM.

And the IC50 (second compound 1 µM)?
Its IC50 is 1950 nM.

And the IC50 (second compound 3.16 µM)?
The IC50 was 44.7 nM.

And the IC50 (second compound 10 µM)?
Its IC50 is less than 31.6 nM.

And the viability, T/C [1]?
The viability, T/C was 101%.

What about the viability, T/C [2] of the same molecule?
The viability, T/C was 61.7%.

What about the viability, T/C [3] of the same molecule?
The viability, T/C was 95%.

And the viability, T/C [4]?
The viability, T/C was 73.2%.

What about the viability, T/C [5] of the same molecule?
Its viability, T/C is 63.7%.

What about the viability, T/C [6] of the same molecule?
The viability, T/C was 15.3%.

And the viability, T/C [7]?
The viability, T/C was 80.2%.

And the viability, T/C [8]?
The viability, T/C was 65.2%.

And the viability, T/C [9]?
The viability, T/C was 79.8%.

What about the viability, T/C [10] of the same molecule?
The viability, T/C was 62.2%.

What about the viability, T/C [11] of the same molecule?
Its viability, T/C is 56.5%.

And the viability, T/C [12]?
Its viability, T/C is 12.7%.

What about the viability, T/C [13] of the same molecule?
The viability, T/C was 91.6%.

What about the viability, T/C [14] of the same molecule?
The viability, T/C was 70.5%.

And the viability, T/C [15]?
The viability, T/C was 77.7%.

And the viability, T/C [16]?
Its viability, T/C is 70%.

And the viability, T/C [17]?
Its viability, T/C is 51.4%.

What about the viability, T/C [18] of the same molecule?
The viability, T/C was 12.8%.

What about the viability, T/C [19] of the same molecule?
The viability, T/C was 84.5%.

What about the viability, T/C [20] of the same molecule?
Its viability, T/C is 71%.

And the viability, T/C [21]?
The viability, T/C was 72.6%.

And the viability, T/C [22]?
The viability, T/C was 59.5%.

What about the viability, T/C [23] of the same molecule?
Its viability, T/C is 44.3%.

What about the viability, T/C [24] of the same molecule?
Its viability, T/C is 11%.

What about the viability, T/C [25] of the same molecule?
The viability, T/C was 50.3%.

And the viability, T/C [26]?
Its viability, T/C is 49.1%.

And the viability, T/C [27]?
The viability, T/C was 24%.

What about the viability, T/C [28] of the same molecule?
Its viability, T/C is 16.9%.

What about the viability, T/C [29] of the same molecule?
The viability, T/C was 12.7%.

And the viability, T/C [30]?
The viability, T/C was 2.18%.

And the viability, T/C [31]?
Its viability, T/C is 20.7%.

What about the viability, T/C [32] of the same molecule?
The viability, T/C was 41.4%.

What about the viability, T/C [33] of the same molecule?
Its viability, T/C is 16.9%.

What about the viability, T/C [34] of the same molecule?
Its viability, T/C is 11.4%.

And the viability, T/C [35]?
Its viability, T/C is 7.59%.

What about the viability, T/C [36] of the same molecule?
Its viability, T/C is 1.56%.

For `O=C(NO)c1cnc(N2CCN(S(=O)(=O)c3ccc4ccccc4c3)CC2)nc1` + Cc1[nH]c2ccc(F)cc2c1-c1nc2c3cccnc3c3ncccc3c2[nH]1, which IC50 (second compound 0.0316 µM) is on record?
Its IC50 is 56.3 nM.

What about the IC50 (second compound 0.1 µM) of the same molecule?
The IC50 was 55.3 nM.

And the IC50 (second compound 0.316 µM)?
The IC50 was 45.2 nM.

What about the IC50 (second compound 1 µM) of the same molecule?
Its IC50 is 40.2 nM.

And the IC50 (second compound 3.16 µM)?
The IC50 was less than 31.6 nM.

And the IC50 (second compound 10 µM)?
Its IC50 is less than 31.6 nM.

What about the viability, T/C [1] of the same molecule?
The viability, T/C was 78%.

What about the viability, T/C [2] of the same molecule?
Its viability, T/C is 17.6%.

And the viability, T/C [3]?
The viability, T/C was 18.6%.

What about the viability, T/C [4] of the same molecule?
The viability, T/C was 19.8%.

And the viability, T/C [5]?
The viability, T/C was 24%.

What about the viability, T/C [6] of the same molecule?
Its viability, T/C is 30.6%.

What about the viability, T/C [7] of the same molecule?
The viability, T/C was 78%.

And the viability, T/C [8]?
The viability, T/C was 18.6%.

What about the viability, T/C [9] of the same molecule?
Its viability, T/C is 16.4%.

And the viability, T/C [10]?
The viability, T/C was 18.6%.

And the viability, T/C [11]?
Its viability, T/C is 21.2%.

And the viability, T/C [12]?
Its viability, T/C is 26.9%.

And the viability, T/C [13]?
The viability, T/C was 63.6%.

What about the viability, T/C [14] of the same molecule?
The viability, T/C was 18.4%.

And the viability, T/C [15]?
The viability, T/C was 17.1%.

What about the viability, T/C [16] of the same molecule?
Its viability, T/C is 18.1%.

And the viability, T/C [17]?
Its viability, T/C is 21.4%.

And the viability, T/C [18]?
The viability, T/C was 22.9%.

And the viability, T/C [19]?
Its viability, T/C is 58.7%.

And the viability, T/C [20]?
The viability, T/C was 15.1%.

And the viability, T/C [21]?
Its viability, T/C is 19.3%.

What about the viability, T/C [22] of the same molecule?
Its viability, T/C is 13.7%.

And the viability, T/C [23]?
Its viability, T/C is 16.1%.

What about the viability, T/C [24] of the same molecule?
The viability, T/C was 21.8%.

What about the viability, T/C [25] of the same molecule?
The viability, T/C was 30.5%.

What about the viability, T/C [26] of the same molecule?
The viability, T/C was 7.85%.

And the viability, T/C [27]?
The viability, T/C was 7.14%.

And the viability, T/C [28]?
Its viability, T/C is 6.02%.

And the viability, T/C [29]?
The viability, T/C was 6.61%.

What about the viability, T/C [30] of the same molecule?
Its viability, T/C is 7.81%.

What about the viability, T/C [31] of the same molecule?
Its viability, T/C is 19.7%.

And the viability, T/C [32]?
The viability, T/C was 7.83%.

And the viability, T/C [33]?
The viability, T/C was 5.03%.

What about the viability, T/C [34] of the same molecule?
Its viability, T/C is 6.51%.

And the viability, T/C [35]?
The viability, T/C was 4.71%.

What about the viability, T/C [36] of the same molecule?
Its viability, T/C is 7.67%.
